Results from patent publication US6635771B2, “N-benzhydryl indole compounds” (Wyeth, priority 2001, dated 2003).

Biological target: T1, cPLA2 (Homo sapiens, UniProt P47712)
T1 sequence (P47712 1-749): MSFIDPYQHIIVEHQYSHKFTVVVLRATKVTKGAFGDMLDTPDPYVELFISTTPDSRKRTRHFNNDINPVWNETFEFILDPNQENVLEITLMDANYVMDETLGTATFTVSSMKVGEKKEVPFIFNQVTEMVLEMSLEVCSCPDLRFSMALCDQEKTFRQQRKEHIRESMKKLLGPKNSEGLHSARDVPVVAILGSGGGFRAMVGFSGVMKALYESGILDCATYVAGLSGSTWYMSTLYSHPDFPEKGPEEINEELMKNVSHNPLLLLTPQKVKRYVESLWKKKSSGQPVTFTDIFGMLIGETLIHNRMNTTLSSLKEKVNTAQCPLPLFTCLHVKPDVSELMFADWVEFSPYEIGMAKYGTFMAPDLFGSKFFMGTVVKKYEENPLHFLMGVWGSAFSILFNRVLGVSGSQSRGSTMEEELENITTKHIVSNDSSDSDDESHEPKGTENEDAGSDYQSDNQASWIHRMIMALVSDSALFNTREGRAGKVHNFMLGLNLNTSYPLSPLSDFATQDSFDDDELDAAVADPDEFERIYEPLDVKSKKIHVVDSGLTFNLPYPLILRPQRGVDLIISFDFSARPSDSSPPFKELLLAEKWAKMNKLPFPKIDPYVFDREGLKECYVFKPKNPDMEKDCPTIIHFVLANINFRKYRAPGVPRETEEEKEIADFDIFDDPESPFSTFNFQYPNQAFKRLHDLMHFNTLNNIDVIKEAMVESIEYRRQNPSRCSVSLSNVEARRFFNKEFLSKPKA
Experiment: Coumarine Assay
Assay type: biochemical
Details: 60 μM 7-hydroxycoumarinyl 6-heptenoate substrate, 4 μg cPLA2, pH 7.5, fluorescence ex 360 nm / em 460 nm; read-out: Coumarin IC50

Row | IC50 [nM] | SMILES
1 | 200 | O=C(O)c1ccc(CCCc2c(CCNS(=O)(=O)Cc3ccc(Cl)c(Cl)c3)n(C(c3ccccc3)c3ccccc3)c3ccccc23)cc1 [Example 127, 4-{3-[1-benzhydryl-2-(2-{[(3,4-dichlorobenzyl)sulfonyl]amino}ethyl)-1H-indol-3-yl]propyl}benzoic acid]
2 | 320 | O=C(O)c1ccc(CCCc2c(CCNS(=O)(=O)Cc3ccccc3)n(C(c3ccccc3)c3ccccc3)c3ccccc23)cc1 [Example 128, 4-[3-(1-benzhydryl-2-{2-[(benzylsulfonyl)amino]ethyl}-1H-indol-3-yl)propyl]benzoic acid]
3 | 200 | O=C(O)CCc1ccc(S(=O)(=O)CCc2c(CCNS(=O)(=O)Cc3c(F)cccc3F)n(C(c3ccccc3)c3ccccc3)c3ccc(Cl)cc23)cc1 [Example 131, 3-[4-({2-[1-benzhydryl-5-chloro-2-(2-{[(2,6-difluorobenzyl)sulfonyl]amino}ethyl)-1H-indol-3-yl]ethyl}sulfonyl)phenyl]propanoic acid]
4 | 200 | O=C(O)CCc1ccc(S(=O)(=O)CCc2c(CCNS(=O)(=O)Cc3ccccc3F)n(C(c3ccccc3)c3ccccc3)c3ccc(Cl)cc23)cc1 [Example 132, 3-[4-({2-[1-benzhydryl-5-chloro-2-(2-{[(2-fluorobenzyl)sulfonyl]amino}ethyl)-1H-indol-3-yl]ethyl}sulfonyl)phenyl] propanoic acid]
5 | 90 | O=C(O)CCc1ccc(S(=O)(=O)CCc2c(CCNS(=O)(=O)Cc3ccccc3Cl)n(C(c3ccccc3)c3ccccc3)c3ccc(Cl)cc23)cc1 [Example 133, 3-[4-({2-[1-benzhydryl-5-chloro-2-(2-{[(2-chlorobenzyl)sulfonyl]amino}ethyl)-1H-indol-3-yl]ethyl}sulfonyl)phenyl]propanoic acid]
6 | > 1000 | O=C(O)c1ccc(CNCc2c(CCNS(=O)(=O)Cc3ccccc3)n(C(c3ccccc3)c3ccccc3)c3ccc(Cl)cc23)cc1 [Example 134, 4-({[(1-benzhydryl-2-{2-[(benzylsulfonyl)amino]ethyl}-5-chloro-1H-indol-3-yl)methyl]amino}methyl)benzoic acid]
7 | 200 | O=C(O)c1ccc(S(=O)(=O)CCc2c(CCNS(=O)(=O)Cc3ccccc3)n(C(c3ccccc3)c3ccccc3)c3ccc(Cl)cc23)cc1 [Example 135]
8 | 180 | O=C(O)c1ccc(S(=O)(=O)CCc2c(CCNS(=O)(=O)Cc3ccccc3Cl)n(C(c3ccccc3)c3ccccc3)c3ccc(Cl)cc23)cc1 [Example 136]
9 | 200 | O=C(O)c1ccc(S(=O)(=O)CCc2c(CCNS(=O)(=O)Cc3ccccc3F)n(C(c3ccccc3)c3ccccc3)c3ccc(Cl)cc23)cc1 [Example 138, 4-({2-[1-benzhydryl-5-chloro-2-(2-{[(2-fluorobenzyl)sulfonyl]amino}ethyl)-1H-indol-3-yl]ethyl}sulfonyl)benzoic acid]
10 | 1700 | O=C(O)c1ccc(OCCc2c(CCNS(=O)(=O)CCN3CCCC3)n(C(c3ccccc3)c3ccccc3)c3ccc(Cl)cc23)cc1 [Example 139, 4-(2-{1-Benzhydryl-5-chloro-2-[2-(2-pyrrolidin-1-yl-ethanesulfonylamino)-ethyl]-1H-indol-3-yl}-ethoxy)-benzoic acid]
11 | 200 | O=C(O)c1ccc(S(=O)(=O)CCc2c(CCNS(=O)(=O)Cc3ccc(Cl)c(Cl)c3)n(C(c3ccccc3)c3ccccc3)c3ccc(Cl)cc23)cc1 [Example 140, 4-({2-[1-benzhydryl-5-chloro-2-(2-{[(3,4-dichlorobenzyl)sulfonyl]amino}ethyl)1H-indol-3-yl]ethyl}sulfonyl)benzoic acid]
12 | 170 | Cc1cccc(C)c1CS(=O)(=O)NCCc1c(CCS(=O)(=O)c2ccc(C(=O)O)cc2)c2cc(Cl)ccc2n1C(c1ccccc1)c1ccccc1 [Example 141, 4-({2-[1-benzhydryl-5-chloro-2-(2-{[(2,6-dimethylbenzyl)sulfonyl]amino}ethyl) 1H-indol-3-yl]ethyl}sulfonyl)benzoic acid]
